In patent US8178506B2, “Oligomeric compounds and compositions for use in modulation of small non-coding RNAs” (Regulus Therapeutics Inc., priority 2003, dated 2012):

Legend:
Type in all cases: cell-based, human
[1] = test system: mir-21 pri-miRNA; assay: mir-21 pri-miRNA expression in HeLa cells (real-time RT-PCR)
[2] = test system: mir-21 mature miRNA; assay: Northern blot of mature mir-21 in HeLa cells; details: 100 nM
Protocol: In one embodiment, the expression of mir-21 (noted to be expressed at high levels in HeLa cells) was assessed in cells treated with oligomeric compounds. Using the transfection methods previously described, HeLa cells were treated with 100 nM of the uniform 2′-MOE oligomeric compound ISIS Number 327917 (SEQ ID NO: 335) targeting the mir-21 mature miRNA. Total RNA was isolated by lysing cells in 1 mL TRIZOL™ (Invitrogen) using the manufacturer's recommended protocols. […] Real-time RT-PCR analysis was also performed on HeLa cells treated with ISIS 327917 using a primer/probe set specific for the mir-21 pri-miRNA molecule [forward primer=ISIS 339332 ([…]; herein incorporated as SEQ ID NO.: 911), reverse primer-ISIS 339333 (TCGACTGGTGTTGCCATGA; herein incorporated as SEQ ID NO.: 912), and probe=ISIS 339334 ([…]; herein incorporated as SEQ ID NO.: 913)]. Total RNA was quantified using RiboGreen™ RNA quantification reagent (Molecular Probes, Inc. Eugene, Oreg.), expression levels observed for the target were normalized to 5.8S rRNA, and values were expressed relative to an untreated control (UTC).

[3] = test system: mir-21 miRNA; assay: pGL3-mir-21 sensor luciferase assay in HeLa cells
Excerpt: In order to assess the ability of miRNAs to bind predicted miRNA binding sites and regulate the expression of the luciferase reporter, in some embodiments, expression systems based on the pGL3-Control (Promega Corp., Madison Wis.) reporter vector and comprising either a mir-15a, mir-21, or a mir-23b miRNA binding site were developed and used in transient transfections of HeLa cells to determine whether the endogenous mir-15a, mir-21, or mir-23b miRNAs, respectively, could repress luciferase reporter gene expression.
The pGL3-mir-21 sensor plasmid was created by cloning the sequence ([…]; SEQ ID NO: 335), representing a sequence complementary to the mir-21 miRNA, into the Xba site of the pGL3-Control plasmid, placing the potential miRNA-binding site in the 3′UTR of the luciferase reporter. This reporter plasmid was used to transfect HeLa cells and it was observed that the endogenous mir-21 miRNA was able to inhibit luciferase expression from the pGL3-mir-21 sensor plasmid. Thus, to further evaluate the ability of the mir-21 miRNA to bind this target site encoded by the pGL3-mir-21 sensor plasmid, and to assess the ability of oligomeric compounds to interfere with mir-21-mediated silencing, pGL3-mir-21 sensor-expressing HeLa cells were treated with varying concentrations (10 nM or 50 nM) of the following oligomeric compounds: ISIS Number 327917 (SEQ ID NO: 335), a phosphorothioate uniform 2′-MOE oligomeric compound; ISIS Number 338697 ([…]; herein incorporated as SEQ ID NO: 524), a uniform 2′-MOE oligomeric compound targeting the mir-21 pri-miRNA molecule; and ISIS Number 328415 (SEQ ID NO: 524), a 2′-MOE 5-10-5 gapmer oligomeric compound targeting the mir-21 pri-miRNA. The uniform 2′-MOE phosphorothioate oligomeric compound ISIS Number 327901 (SEQ ID NO: 319) targeting an unrelated miRNA (mir-143) was used as a negative control. The data are the average of three trials and are presented in Table 44 as percent untreated control (luciferase plasmid only, not treated with oligomeric compound) luciferase expression, normalized to pRL-CMV levels.
In one embodiment, the oligomeric compounds ISIS Number 327917 (SEQ ID NO: 335), the phosphorothioate uniform 2′-MOE targeting mature mir-21; ISIS Number 358768 (SEQ ID NO: 918), the uniform 2′-MOE targeting the mir-21 pri-miRNA which stimulated the largest increase in pri-miRNA expression levels by real time quantitative RT-PCR; and ISIS Number 345382 (SEQ ID NO: 335), the 5-10-7 phosphorothioate 2′-MOE gapmer targeting mature mir-21 were selected for dose response studies in HeLa cells using the luciferase reporter system described in Example 27. ISIS Number 342683 (SEQ ID NO: 790), representing the scrambled nucleotide sequence of an unrelated PTP1B antisense oligonucleotide, was used as a negative control. HeLa cells expressing the pGL3-mir-21 sensor plasmid (described in Example 27) were treated with 1.9, 5.5, 16.7, and 50 nM of these oligomeric compounds, to assess the ability of oligomeric compounds to interfere with endogenous mir-21-mediated silencing of the pGL3-mir-21 sensor plasmid. The data are presented in Table 50 as percent untreated control (luciferase plasmid only, not treated with oligomeric compound) luciferase expression, normalized to pRL-CMV levels.

## TCAACATCAGTCTGATAAGCTA (chemistry not given here) [ISIS 327917, uniform 2′-MOE PS; targets mir-21]
[1]; HeLa, 100 nM
  increase in levels of the mir-21 pri-miRNA molecule: approximately 2 fold
  levels of the mir-21 pri-miRNA molecule: stimulate an increase in levels of the mir-21 pri-miRNA molecule
[1]; HeLa, 25, 50, 100 and 200 nM
  mir-21 pri-miRNA levels, dose response: dose-responsive induction of mir-21 pri-miRNA levels
[2]
  expression levels of the mir-21 mature miRNA: 50 % of those of untreated control cells
[3]; HeLa, 10 nM or 50 nM
  expression of the luciferase reporter, pGL3-mir-21 sensor: de-repressed the expression of the luciferase reporter
[3]; HeLa, 1.9, 5.5, 16.7 and 50 nM
  expression of the luciferase reporter, pGL3-mir-21 sensor, dose response: de-repressed the expression of the luciferase reporter, in a dose-dependent fashion
